Measured values published in patent publication US4337272A, “Amino-ethanol derivatives” (Valeas S. R. L. Industria Chimica E Farmaceutica, priority 1975, dated 1982).
Structures can show the parent of a compound that is named as a salt.

How the values were obtained:
[1] = test system: bronchospasm induced by Acetilcholine in conscious guinea pig; assay: Prevention of acetylcholine-induced bronchospasm in conscious guinea pig by inhalation (Armitage method)
[2] = Acute toxicity LD50 (Litchfield and Wilcoxon); conditions: in vivo
[3] = test system: Guinea Pig airway constriction; conditions: i.v.; literature (Duhault et al.); cited from earlier work

| SMILES | time before sign of dispnea (mean) [1] [s] | LD50 [2] [mg/kg] | active dose in the experimental bronchospasm according to Konzett-Rossler [3] [mg/kg] |
| --- | --- | --- | --- |
| CC(C)NCC(O)c1cc(O)cc(O)c1 (centres unmarked) [Orciprenaline, reference compound] | 502 ± 67 | 380 |  |
| Cn1c(=O)c2[nH]cnc2n(C)c1=O [Theophylline] |  |  | 25 |
| COc1ccc(CC(C)NCC(O)c2cc(N)cc(CO)c2)cc1 (centres unmarked) [VAL 5000/PM, 1-(5-amino-3 hydroxymethyl) phenyl-2-(1 p-methoxyphenyl-2-propylamino)ethanol dihydrochloride] | 475 ± 60 | 295 |  |
